Data: patent publication US8901105B2, “Prodrug derivatives of (E)-N-methyl-N-((3-M ethylbenzofuran-2-yl)methyl)-3-(7-oxo-5,6,7,8-tetrahydro-1,8-naphthyridin-3-yl)acrylamide” (Affinium Pharmaceuticals, Inc., priority 2012, dated 2014)
In brackets after ≈: the same amount, converted by molar mass. Where a name gives a salt, the structure may show the parent alone. Read-outs that look alike come from different tables or passages of the source.

Assays:
[1] = Aqueous solubility of salts at 25° C.; format: physicochemical; conditions: for solubility: thermodynamic from solid; for Comments (behaviour in solubility experiment): disodium salt
[2] = XRPD crystal form after storage; format: physicochemical; conditions: 4 weeks storage
Procedure: (§1) Various compounds disclosed herein have been placed on long-term solid-state stability protocol. The compounds were stored in glass vials closed with PTFE lined caps at 30° C./65% RH, 40° C./75% RH, 50° C. and 60° C. (ambient humidity). The results of the study after 4 weeks are shown in Table B1 and after 3 months in Table B2. Appearance and purity analysis were conducted using HPLC and XPRD. The HPLC analyses were conducted using standard equipment such as a Agilent HP1100 HPLC (Station ID: LZPES HPLC 04) with YMC-Pack ODS-AQ sub 3 μm, 150×4.6 mm Samples were prepared for XRPD by sprinkling ˜20 mg onto a Si wafer zero background plate and pressing the material flat to ensure the surface is smooth and level. The samples were analyzed according the equipment parameters below.

[3] = Solid-state stability (HPLC % area after storage); format: physicochemical; conditions: for Solid-state stability % Area: 4 weeks
Procedure: as §1, with “mm” for “mm Samples were prepared for XRPD by sprinkling ˜20 mg onto a Si wafer zero background plate and pressing the material flat to ensure the surface is smooth and level. The samples were analyzed according the equipment parameters below.”

[4] = Photostability of solid salts; format: physicochemical
Streptococcus pneumoniae = assay: Broth microdilution MIC; format: cell-based; conditions: ATCC49619, S. pneumoniae ATCC 49619, read-out: MIC
Procedure: (§2) Bacterial Isolates. Organisms tested in this study are listed in Table P. Clinical isolates consisted of 5 Staphylococcus aureus (MSSA), 3 Staphylococcus aureus (HA-MRSA), 2 Staphylococcus aureus (CA-MRSA), 2 Enterococcus faecalis (VSE), 2 Streptococcus pyogenes, and 2 Escherichia coli (susceptible to most antibiotics). S. aureus ATCC 29213, E. faecalis ATCC 29212, S. pneumoniae ATCC 49619, and E. coli ATCC 25922 were tested for the purposes of quality control.
(§3) Minimal Inhibitory Concentrations (MIC) values against the selected isolates were determined using the reference broth microdilution method according to the Clinical Laboratory Standards Institute (CLSI) guidelines.
(§4) The MIC was read and recorded as the lowest concentration of drug that inhibited visible growth of the organism.

Enterococcus faecalis = assay: Broth microdilution MIC; format: cell-based
Procedure: as §2, §3, §4

Escherichia coli = assay: Broth microdilution MIC; format: cell-based; conditions: Escherichia coli, read-out: MIC
Procedure: as §2, §3, §4

Streptococcus pyogenes = assay: Broth microdilution MIC; format: cell-based
Procedure: as §2, §3, §4

Staphylococcus aureus = assay: Broth microdilution MIC; format: cell-based; conditions: Staphylococcus aureus, read-out: MIC
Procedure: as §2, §3, §4

[5] = water, 25° C., mg free acid equivalent/mL, read-out: Solubility in Water
[6] = ATCC29212, E. faecalis ATCC 29212, read-out: MIC
[7] = E. faecalis 4158, VSE, read-out: MIC
[8] = E. faecalis 4212, VSE, read-out: MIC
[9] = Streptococcus pyogenes, S. pyogenes 6179, read-out: MIC
[10] = ATCC29213, S. aureus ATCC 29213

Structure (SMILES)	MIC (Streptococcus pneumoniae)	MIC (Enterococcus faecalis; [6])	MIC (Enterococcus faecalis; [7])	MIC (Enterococcus faecalis; [8])	MIC (Escherichia coli; ATCC25922, E. coli ATCC 25922)	MIC (Escherichia coli; E. coli 2214)	MIC (Escherichia coli; E. coli 5255)	MIC (Streptococcus pyogenes; S. pyogenes 6528)	MIC (Streptococcus pyogenes; [9])	MIC (Staphylococcus aureus; [10])	MIC (Staphylococcus aureus; MRSA, S. aureus 3083, HA-MRSA)	MIC (Staphylococcus aureus; MRSA, S. aureus 3086, HA-MRSA)	MIC (Staphylococcus aureus; MRSA, S. aureus 3265, HA-MRSA)	MIC (Staphylococcus aureus; MSSA, S. aureus 3104, MSSA)	MIC (Staphylococcus aureus; MSSA, S. aureus 3107, MSSA)	MIC (Staphylococcus aureus; MSSA, S. aureus 3245, MSSA)	MIC (Staphylococcus aureus; MSSA, S. aureus 3250, MSSA)	MIC (Staphylococcus aureus; MSSA, S. aureus 3856, MSSA)	MIC (Staphylococcus aureus; S. aureus 2168, CAMRSA)	MIC (Staphylococcus aureus; S. aureus 2294, CAMRSA)	further results
Cc1c(CN(C)C(=O)/C=C/c2cnc3c(c2)CCC(=O)N3COP2(=O)[O][Ca][O]2)oc2ccccc12 [Compound 13, (E)-6-[(N-methyl-((3-methylbenzofuran-2-yl)methyl)amino)-3-oxoprop-1-en-1-yl)-2-oxo-3,4-dihydro-1,8-naphthyridin-1(2H)-yl]methylphosphate calcium salt]																					solubility [1, 5]: < 100 µg/mL
Cc1c(CN(C)C(=O)/C=C/c2cnc3c(c2)CCC(=O)N3COP(=O)([O-])[O-])oc2ccccc12.[Na+].[Na+] [Compound 9]																					change in XRPD [2]: no change; Solid-state stability % Area ([3]; 30° C./65% RH): 96.3 % Area; Solid-state stability % Area ([3]; 40° C./75% RH): 84.4 % Area; Solid-state stability % Area ([3]; 50° C./ambient humidity): 86.8 % Area; Solid-state stability % Area ([3]; 60° C./ambient humidity): 85.9 % Area; Solid-state stability % Area ([3]; Control (ambient lab conditions protected from light)): 96.4 % Area; chemical stability ([3]; over 1 month at 30° C./65% RH, closed vials, light protected): chemically stable; Control % Area (Table C) ([4]; control sample at ambient lab conditions protected from light): 96.4 % Area; Photo-stability % Area ([4]; exposed to 60% of ICH minimum): 55.9 % Area; solubility ([1]; aqueous buffer, pH 6.6, aqueous buffer, originally amorphous, crystallized within 7 days in aqueous buffer, pH 6.6-7.1, read-out: solubility after crystallization in aqueous buffer): < 5000 µg/mL; Comments (behaviour in solubility experiment) ([1]; water, 25° C.): Forms gels; Comments (behaviour in solubility experiment) ([1]; water, 25° C., listed as bis-sodium): formed unwieldy gels
Cc1c(CN(C)C(=O)/C=C/c2cnc3c(c2)CCC(=O)N3COP2(=O)[O][Mg][O]2)oc2ccccc12 [Compound 12, (E)-6-[(N-methyl-((3-methylbenzofuran-2-yl)methyl)amino)-3-oxoprop-1-en-1-yl)-2-oxo-3,4-dihydro-1,8-naphthyridin-1 (2H)-yl]methylphosphate magnesium salt]																					solubility [1, 5]: < 1000 µg/mL
O=C(O)c1cn(C2CC2)c2cc(N3CCNCC3)c(F)cc2c1=O [Ciprofloxacin]	0.5 µg/mL (≈ 1.51 µM)	0.5 µg/mL (≈ 1.51 µM)	64 µg/mL (≈ 193 µM)	32 µg/mL (≈ 96.6 µM)	0.008 µg/mL (≈ 0.0241 µM)	0.015 µg/mL (≈ 0.0453 µM)	0.008 µg/mL (≈ 0.0241 µM)	0.5 µg/mL (≈ 1.51 µM)	0.5 µg/mL (≈ 1.51 µM)	0.5 µg/mL (≈ 1.51 µM)	32 µg/mL (≈ 96.6 µM)	> 64 µg/mL	> 64 µg/mL	0.25 µg/mL (≈ 0.754 µM)	0.5 µg/mL (≈ 1.51 µM)	0.5 µg/mL (≈ 1.51 µM)	2 µg/mL (≈ 6.04 µM)	> 64 µg/mL	16 µg/mL (≈ 48.3 µM)	> 64 µg/mL	
Cc1c(CN(C)C(=O)/C=C/c2cnc3c(c2)CCC(=O)N3)oc2ccccc12 [Compound Z, (E)-N-methyl-N-((3-methylbenzofuran-2-yl)methyl)-3-(7-oxo-5,6,7,8-tetrahydro-1,8-naphthyridin-3-yl)acrylamide]	> 2 µg/mL	> 2 µg/mL	> 2 µg/mL	> 2 µg/mL	> 2 µg/mL	> 2 µg/mL	> 2 µg/mL	>2 µg/mL	> 2 µg/mL	0.004 µg/mL (≈ 0.0107 µM)	0.004 µg/mL (≈ 0.0107 µM)	0.03 µg/mL (≈ 0.0799 µM)	0.004 µg/mL (≈ 0.0107 µM)	0.015 µg/mL (≈ 0.04 µM)	0.004 µg/mL (≈ 0.0107 µM)	0.015 µg/mL (≈ 0.04 µM)	0.004 µg/mL (≈ 0.0107 µM)	0.004 µg/mL (≈ 0.0107 µM)	0.004 µg/mL (≈ 0.0107 µM)	0.03 µg/mL (≈ 0.0799 µM)	
CC(=O)NC[C@H]1CN(c2ccc(N3CCOCC3)c(F)c2)C(=O)O1 [Linezolid]	1 µg/mL (≈ 2.96 µM)	1 µg/mL (≈ 2.96 µM)	1 µg/mL (≈ 2.96 µM)	1 µg/mL (≈ 2.96 µM)	64 µg/mL (≈ 190 µM)	> 64 µg/mL	64 µg/mL (≈ 190 µM)	1 µg/mL (≈ 2.96 µM)	1 µg/mL (≈ 2.96 µM)	4 µg/mL (≈ 11.9 µM)	2 µg/mL (≈ 5.93 µM)	2 µg/mL (≈ 5.93 µM)	2 µg/mL (≈ 5.93 µM)	2 µg/mL (≈ 5.93 µM)	2 µg/mL (≈ 5.93 µM)	2 µg/mL (≈ 5.93 µM)	4 µg/mL (≈ 11.9 µM)	2 µg/mL (≈ 5.93 µM)	2 µg/mL (≈ 5.93 µM)	2 µg/mL (≈ 5.93 µM)	
